From patent publication US20100292200A1, “Methods for Modulating Apoptosis in Platelets” (The Walter and Eliza Hall Institute of Medical Research, priority 2006, published 2010)
“Also recorded” adds a separate entry of the source.

Experiments:
serum TPO levels = test: Thrombopoietin analysis (serum TPO ELISA) in ABT-737 treated mice; type: in vivo, mouse; settings: after ABT-737
Description: Animals were bled 2-24 h afterwards and platelet counts determined. […] (B) Platelet recovery after a single dose of ABT-737. Platelet counts (blue symbols; left axis) were determined 2-96 h after a single dose of ABT-737 (red arrow). […] Orange symbols represent serum TPO levels (right axis). (C) Cyclical acute thrombocytopaenia triggered by ABT-737. Platelet counts were determined before and 8 h after a single dose of ABT-737 (red arrows) given at weekly intervals. […] During recovery, baseline counts drifted upwards. (D) ABT-737 acts selectively on aged platelets. […] (E) Synchronizing platelets. […] During recovery, the newly synthesized younger platelets are larger as indicated by the increased mean platelet volume (blue symbols; right axis). (F) Young platelets are resistant to ABT-737. Wild type C57BL/6 mice were treated with APS, and then injected with ABT-737 (red arrows) either 2 or 7 days afterwards. Absolute platelet counts and the % of reticulated platelets were measured. […]
Blood was collected from the retroorbital sinus using a non-heparinized capillary tube into an eppendorf tube and incubated at room temperature for 2 h. […] Thrombopoietin levels were measured by enzyme-linked immunosorbent assay (ELISA) using the Quantikine Mouse TPO Immunoassay kit (R&D Systems) according to the manufacturer's instructions.

[1] = mouse, in vivo; cited from earlier work

CN(C)CC[C@H](CSc1ccccc1)Nc1ccc(S(=O)(=O)NC(=O)c2ccc(N3CCN(Cc4ccccc4-c4ccc(Cl)cc4)CC3)cc2)cc1[N+](=O)[O-] [ABT-737]
TPO levels in ABT-737 treated mice (serum TPO levels): sustained production; also recorded: normal, or probably even elevated
tolerability in mice [1]: well-tolerated
